This passage reports AC50, EC50 and IC50 results from ChEMBL document CHEMBL1201862, “PubChem BioAssay data set” (2004).

Activity calls are given as the source filed them. Bounds are passed on as bounds.

By AC50 is commonly meant the concentration giving half of the maximal activity seen. For orientation: EC50 means the concentration at which the effect is half-maximal. In general, IC50 refers to the point on the concentration scale where inhibition reaches its midpoint.

Data set [1] has as its target T1, Cytochrome P450 2D6 (Homo sapiens, UniProt P10635).
In another data set the target is Cytochrome P450 3A4 (Homo sapiens, UniProt P08684).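 Note: CYP3A4 tested as one member of a cytochrome P450 panel screen.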
In data set [2] the test system is HEK293. Briefly: cells. The note with it: Homo sapiens.
Data set [3] has as its system HEK293. Briefly: cells. The following applies: Homo sapiens. The source holds these as a separate data set.
Data set [4] deals with Delta-type opioid receptor (Homo sapiens, UniProt P41143). Briefly: Counterscreen for agonists of heterodimerization of the mu 1 (OPRM1) and delta 1 (OPRD1) opioid receptors: Luminescence-based cell-based high throughput dose response assay to identify agonists of OPRD1 homodimerization. [Related pubchem assays (depositor defined):AID504326, AID504355, AID504692, AID504904, AID504905]. In kind it is functional. (A counterscreen serves to expose hits that act by an unwanted route or on another target.)

The target in data set [5] is 5-hydroxytryptamine receptor 5A (Homo sapiens, UniProt P47898). Briefly: Counterscreen for agonists of OPRM1-OPRD1 heterodimerization: luminescence-based cell-based high throughput dose response assay to identify agonists of 5-hydroxytryptamine (serotonin) 5A receptor (HTR5A). [Related pubchem assays (depositor defined):AID504326, AID504355, AID504692, AID504904, AID504905]. In kind it is functional.

The target of data set [6] is T2, Heat shock factor protein 1 (Mus musculus, UniProt P38532).
T2 sequence (P38532 whole entry): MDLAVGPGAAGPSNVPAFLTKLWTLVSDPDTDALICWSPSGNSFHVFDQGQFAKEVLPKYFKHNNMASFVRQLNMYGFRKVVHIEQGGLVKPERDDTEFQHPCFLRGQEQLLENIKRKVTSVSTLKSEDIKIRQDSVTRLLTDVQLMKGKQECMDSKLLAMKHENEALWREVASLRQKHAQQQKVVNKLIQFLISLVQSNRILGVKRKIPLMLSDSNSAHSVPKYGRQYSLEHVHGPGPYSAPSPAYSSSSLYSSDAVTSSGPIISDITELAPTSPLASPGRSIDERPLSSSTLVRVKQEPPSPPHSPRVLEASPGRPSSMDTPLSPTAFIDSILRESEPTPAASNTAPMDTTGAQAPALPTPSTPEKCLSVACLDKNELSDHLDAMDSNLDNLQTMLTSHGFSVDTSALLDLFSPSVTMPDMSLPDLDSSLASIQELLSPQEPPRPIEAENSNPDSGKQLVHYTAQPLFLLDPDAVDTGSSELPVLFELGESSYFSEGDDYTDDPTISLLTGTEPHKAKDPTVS
Briefly: enhancement of HSF1-driven luciferase signal – cell-based, NIH3T3, luminescence, dose retest, confirmation (AID 435004).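 Note: stress induced by proteasome inhibitor MG132 added 30 min after compound; luciferase reporter driven by HSF1 response element in NIH3T3 cells; actives raise luminescence as potentiators of the MG132 stress response.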 The class given is functional.

In the next data set the target is Mu-type opioid receptor (Homo sapiens, UniProt P35372). Briefly: Counterscreen for agonists of heterodimerization of the mu 1 (OPRM1) and delta 1 (OPRD1) opioid receptors: Luminescence-based cell-based high throughput dose response assay to identify agonists of OPRM1 homodimerization. In kind it is functional.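 Note: U2OS cells expressing OPRM1 and beta-arrestin as split beta-galactosidase partners.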
Data set [7] concerns the target T1, Cytochrome P450 2D6. This is another data set of the same source.
A further data set deals with Cytochrome P450 2C19 (Homo sapiens, UniProt P33261). Briefly: Cytochrome panel assay with activity outcomes. Panel member name: p450-cyp2c19 Compounds with AC50 equal or less than 10 uM are considered active. In kind it is functional.
The target of data set [8] is T3, Type-1 angiotensin II receptor (Homo sapiens, UniProt P30556).
T3 sequence (P30556 whole entry): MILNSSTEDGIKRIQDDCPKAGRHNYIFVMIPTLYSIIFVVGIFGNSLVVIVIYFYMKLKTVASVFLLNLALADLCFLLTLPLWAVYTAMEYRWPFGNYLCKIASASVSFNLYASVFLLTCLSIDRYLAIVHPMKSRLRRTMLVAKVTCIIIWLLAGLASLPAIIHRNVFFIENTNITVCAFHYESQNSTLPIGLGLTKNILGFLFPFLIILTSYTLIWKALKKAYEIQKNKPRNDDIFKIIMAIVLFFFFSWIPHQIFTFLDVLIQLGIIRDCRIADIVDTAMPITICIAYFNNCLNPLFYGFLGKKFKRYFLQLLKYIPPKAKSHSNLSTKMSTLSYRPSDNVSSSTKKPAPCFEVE
Briefly: antagonism of angiotensin II type 1 receptor – cell-based, uHTS hits, selectivity assay for APJ receptor antagonist project, dose response (AID 463214).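 Note: antagonist potency against angiotensin II stimulated AT1 response.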 In kind it is functional.

Another data set addresses Beta-galactosidase (Escherichia coli, UniProt Q8VNN2). Kind of data set: PubChem AID 485352. The class given is functional.
Data set [9] is described as follows: NIH3T3 cell viability loss – ATP luminescence, mouse fibroblasts, counter-screen, dose response (AID 2010).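 Note: cells exposed to compound for about 90 hours before reading.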 In kind it is functional, cell-based.
Data set [10] is described as follows: Trypanosoma cruzi growth suppression in host cells – NIH3T3 host cells, beta-gal luminescence, confirmation (AID 2044).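 Note: intracellular parasites grown in NIH/3T3 mouse fibroblasts as host cells; luminescent beta-galactosidase reporter signal from transgenic T. cruzi replicating inside host cells; inhibitors lower the luminescence signal.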 The class given is functional, cell-based.
For data set [11], the target named is T4, Ubiquitin-conjugating enzyme E2 N (Homo sapiens, UniProt P61088).
T4 sequence (P61088 whole entry): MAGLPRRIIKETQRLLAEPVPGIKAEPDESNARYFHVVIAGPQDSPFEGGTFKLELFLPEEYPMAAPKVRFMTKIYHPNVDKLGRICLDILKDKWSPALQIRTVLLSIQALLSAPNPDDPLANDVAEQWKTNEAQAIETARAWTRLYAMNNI
The class given is functional.

In data set [12] the target is T5, DNA repair and recombination protein RAD54-like (Homo sapiens, UniProt Q92698).
T5 sequence (Q92698 whole entry): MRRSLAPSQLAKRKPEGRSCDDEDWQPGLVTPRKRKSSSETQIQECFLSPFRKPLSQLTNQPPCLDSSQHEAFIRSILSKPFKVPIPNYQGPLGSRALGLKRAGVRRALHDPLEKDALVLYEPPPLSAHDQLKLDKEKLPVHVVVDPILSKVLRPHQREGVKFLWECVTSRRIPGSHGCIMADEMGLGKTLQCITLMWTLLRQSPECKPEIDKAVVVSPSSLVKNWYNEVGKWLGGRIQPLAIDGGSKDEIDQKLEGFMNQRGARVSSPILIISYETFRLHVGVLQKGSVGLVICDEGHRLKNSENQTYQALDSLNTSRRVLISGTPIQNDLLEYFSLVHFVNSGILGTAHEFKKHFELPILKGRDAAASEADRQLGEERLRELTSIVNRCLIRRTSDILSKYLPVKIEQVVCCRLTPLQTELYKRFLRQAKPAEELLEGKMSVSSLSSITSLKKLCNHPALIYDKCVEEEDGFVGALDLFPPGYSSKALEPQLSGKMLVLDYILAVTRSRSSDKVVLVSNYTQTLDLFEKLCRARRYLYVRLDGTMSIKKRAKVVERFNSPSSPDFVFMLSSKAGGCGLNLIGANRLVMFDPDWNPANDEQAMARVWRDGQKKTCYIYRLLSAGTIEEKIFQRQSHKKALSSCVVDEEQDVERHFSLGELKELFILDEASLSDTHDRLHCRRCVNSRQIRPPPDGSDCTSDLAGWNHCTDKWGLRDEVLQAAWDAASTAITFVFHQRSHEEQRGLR
Briefly: RAD54 Holliday junction migration blockers – biochemical, fluorescence, cherry-picked samples, dose series, confirmation (AID 651657). The class given is functional.

The target of data set [13] is T4, Ubiquitin-conjugating enzyme E2 N. The class given is functional. This is another data set of the same source.
For the next data set, the target named is T6, Bcl-2-related protein A1 (Mus musculus, UniProt Q07440).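 Note: confirmatory dose–response counterscreen on Bfl-1, used to check hits from a UBC13 polyubiquitin inhibitor campaign.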
T6 sequence (Q07440 whole entry): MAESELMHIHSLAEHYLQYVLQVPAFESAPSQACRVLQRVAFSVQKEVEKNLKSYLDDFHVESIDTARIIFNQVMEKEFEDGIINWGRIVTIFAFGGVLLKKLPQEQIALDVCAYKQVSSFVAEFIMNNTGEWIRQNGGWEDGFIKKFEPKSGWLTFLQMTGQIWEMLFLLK
In kind it is functional.

Another data set concerns the target Cytochrome P450 2C9 (Homo sapiens, UniProt P11712).
Data set [14] in a line: HIV-1 AD8 envelope cell-cell fusion blockers – cherry-pick, dose response (AID 652062).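 Note: luciferase signal from cell-cell fusion driven by HIV-1 clade B AD8 Env; potency is for inhibitors of fusion seen as a drop in luminescence.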 In kind it is functional, cell-based.
The nature of data set [15]: off-target signal loss in HeLa-CEM21 co-culture – HeLa F-luc CTL cells, cherry-picked, counter-screen for HIV-1 Env fusion inhibitor project, dose response (AID 652040).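 Note: potency for signal decrease marking cytotoxic or nonspecific inhibition.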 In kind it is functional, cell-based.
The nature of data set [16]: blockers of HIV-1 ZM109 envelope-driven cell-cell fusion – HeLa effector, CEM target cells, luciferase, cherry-pick, dose response (AID 652058).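 Note: luciferase signal from HIV-1 Env mediated cell-cell fusion of effector and target cells.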 The class given is functional, cell-based.
Data set [17] is described as follows: blockers of HIV-1 envelope-mediated cell-cell fusion – cherry-pick, dose response (AID 652057). The class given is functional, cell-based.
Data set [18] has as its target T7, Short transient receptor potential channel 4 (Mus musculus, UniProt Q9QUQ5).
T7 sequence (Q9QUQ5 whole entry): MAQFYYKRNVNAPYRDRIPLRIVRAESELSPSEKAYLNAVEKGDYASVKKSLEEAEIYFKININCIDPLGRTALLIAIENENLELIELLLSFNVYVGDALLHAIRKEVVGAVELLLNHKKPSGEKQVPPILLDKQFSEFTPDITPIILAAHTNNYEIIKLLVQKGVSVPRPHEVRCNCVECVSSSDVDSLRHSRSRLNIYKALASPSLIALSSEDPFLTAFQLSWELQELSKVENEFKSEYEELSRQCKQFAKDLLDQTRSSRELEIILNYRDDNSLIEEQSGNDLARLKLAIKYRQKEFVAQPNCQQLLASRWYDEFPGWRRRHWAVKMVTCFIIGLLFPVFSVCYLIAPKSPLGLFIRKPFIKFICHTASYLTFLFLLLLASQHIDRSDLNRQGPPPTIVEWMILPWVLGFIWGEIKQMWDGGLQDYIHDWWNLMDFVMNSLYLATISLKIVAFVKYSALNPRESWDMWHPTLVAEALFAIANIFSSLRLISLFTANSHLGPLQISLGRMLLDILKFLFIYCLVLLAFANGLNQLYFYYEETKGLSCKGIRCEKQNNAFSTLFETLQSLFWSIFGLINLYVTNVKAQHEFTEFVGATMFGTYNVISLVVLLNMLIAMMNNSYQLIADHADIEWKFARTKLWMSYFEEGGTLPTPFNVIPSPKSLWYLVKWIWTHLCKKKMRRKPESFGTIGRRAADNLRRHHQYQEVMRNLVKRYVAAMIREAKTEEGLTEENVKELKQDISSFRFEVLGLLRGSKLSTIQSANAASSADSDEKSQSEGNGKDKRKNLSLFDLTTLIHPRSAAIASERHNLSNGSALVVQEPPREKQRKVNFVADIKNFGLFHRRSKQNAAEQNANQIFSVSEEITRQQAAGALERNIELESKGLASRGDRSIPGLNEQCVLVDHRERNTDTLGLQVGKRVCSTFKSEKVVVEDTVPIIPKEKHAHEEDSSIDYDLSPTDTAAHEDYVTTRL
Briefly: calcium entry via TRPC4 opening agents – cell-based, HEK293 TRPC4/mu-opioid, Fluo-4 calcium, dose response (AID 434937). The class given is functional.

Chain of Cytochrome P450 3A4 (P08684 whole entry): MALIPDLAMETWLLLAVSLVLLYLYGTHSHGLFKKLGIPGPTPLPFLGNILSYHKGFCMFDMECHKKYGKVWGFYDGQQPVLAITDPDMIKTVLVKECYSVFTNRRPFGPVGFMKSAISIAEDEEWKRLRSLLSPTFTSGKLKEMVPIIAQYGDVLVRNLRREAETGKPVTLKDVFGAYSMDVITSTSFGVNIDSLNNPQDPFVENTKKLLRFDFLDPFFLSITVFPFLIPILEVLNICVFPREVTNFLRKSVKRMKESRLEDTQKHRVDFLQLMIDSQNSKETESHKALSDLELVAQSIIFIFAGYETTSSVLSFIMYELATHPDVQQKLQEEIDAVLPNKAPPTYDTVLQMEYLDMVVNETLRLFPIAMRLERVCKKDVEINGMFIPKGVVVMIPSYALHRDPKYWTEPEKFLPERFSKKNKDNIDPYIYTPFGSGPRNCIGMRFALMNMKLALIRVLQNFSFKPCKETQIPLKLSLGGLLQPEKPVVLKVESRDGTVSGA
Chain of Mu-type opioid receptor (P35372 whole entry): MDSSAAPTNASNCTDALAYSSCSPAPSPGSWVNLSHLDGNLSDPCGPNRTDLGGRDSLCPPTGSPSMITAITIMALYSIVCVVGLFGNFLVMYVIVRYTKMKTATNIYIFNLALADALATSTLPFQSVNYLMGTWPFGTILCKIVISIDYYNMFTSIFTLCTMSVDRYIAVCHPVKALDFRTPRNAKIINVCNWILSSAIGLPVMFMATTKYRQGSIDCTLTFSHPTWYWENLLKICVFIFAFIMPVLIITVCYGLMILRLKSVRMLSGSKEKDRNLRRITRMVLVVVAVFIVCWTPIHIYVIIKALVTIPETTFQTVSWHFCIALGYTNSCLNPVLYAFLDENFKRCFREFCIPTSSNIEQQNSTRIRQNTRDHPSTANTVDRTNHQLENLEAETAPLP
Chain of 5-hydroxytryptamine receptor 5A (P47898 whole entry): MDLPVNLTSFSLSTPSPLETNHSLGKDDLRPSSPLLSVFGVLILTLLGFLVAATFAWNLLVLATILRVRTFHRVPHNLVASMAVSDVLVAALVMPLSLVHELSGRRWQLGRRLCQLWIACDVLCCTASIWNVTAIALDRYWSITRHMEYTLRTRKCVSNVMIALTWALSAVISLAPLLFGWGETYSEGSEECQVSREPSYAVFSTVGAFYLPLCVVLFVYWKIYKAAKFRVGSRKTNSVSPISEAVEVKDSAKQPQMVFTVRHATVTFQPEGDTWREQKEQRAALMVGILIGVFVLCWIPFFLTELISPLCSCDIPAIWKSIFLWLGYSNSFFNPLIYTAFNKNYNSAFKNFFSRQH
Chain of Cytochrome P450 2C9 (P11712 whole entry, the tested form may be a part): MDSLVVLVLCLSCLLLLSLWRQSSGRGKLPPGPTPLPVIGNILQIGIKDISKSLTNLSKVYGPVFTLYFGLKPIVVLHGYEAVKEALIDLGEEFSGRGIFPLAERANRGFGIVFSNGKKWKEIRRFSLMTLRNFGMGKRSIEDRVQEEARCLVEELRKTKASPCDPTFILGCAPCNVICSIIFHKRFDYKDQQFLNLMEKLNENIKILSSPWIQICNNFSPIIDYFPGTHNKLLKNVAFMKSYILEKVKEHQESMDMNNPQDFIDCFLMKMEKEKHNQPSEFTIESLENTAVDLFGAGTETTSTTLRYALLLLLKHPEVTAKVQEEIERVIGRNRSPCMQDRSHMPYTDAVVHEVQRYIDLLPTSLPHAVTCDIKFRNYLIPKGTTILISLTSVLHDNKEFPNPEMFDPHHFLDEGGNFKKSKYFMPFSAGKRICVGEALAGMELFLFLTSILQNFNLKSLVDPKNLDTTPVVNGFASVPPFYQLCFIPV
Chain of Delta-type opioid receptor (P41143 whole entry): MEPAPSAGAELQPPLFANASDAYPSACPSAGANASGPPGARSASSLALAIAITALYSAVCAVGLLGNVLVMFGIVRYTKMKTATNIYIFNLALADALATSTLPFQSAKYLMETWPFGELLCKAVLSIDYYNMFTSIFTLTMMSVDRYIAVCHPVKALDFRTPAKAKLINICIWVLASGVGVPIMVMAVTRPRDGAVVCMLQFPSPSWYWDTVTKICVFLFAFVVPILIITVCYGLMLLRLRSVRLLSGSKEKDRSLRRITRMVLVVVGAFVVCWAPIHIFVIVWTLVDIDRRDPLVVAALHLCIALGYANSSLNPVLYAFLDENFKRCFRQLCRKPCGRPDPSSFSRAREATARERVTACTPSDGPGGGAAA
T1 sequence (P10635 whole entry): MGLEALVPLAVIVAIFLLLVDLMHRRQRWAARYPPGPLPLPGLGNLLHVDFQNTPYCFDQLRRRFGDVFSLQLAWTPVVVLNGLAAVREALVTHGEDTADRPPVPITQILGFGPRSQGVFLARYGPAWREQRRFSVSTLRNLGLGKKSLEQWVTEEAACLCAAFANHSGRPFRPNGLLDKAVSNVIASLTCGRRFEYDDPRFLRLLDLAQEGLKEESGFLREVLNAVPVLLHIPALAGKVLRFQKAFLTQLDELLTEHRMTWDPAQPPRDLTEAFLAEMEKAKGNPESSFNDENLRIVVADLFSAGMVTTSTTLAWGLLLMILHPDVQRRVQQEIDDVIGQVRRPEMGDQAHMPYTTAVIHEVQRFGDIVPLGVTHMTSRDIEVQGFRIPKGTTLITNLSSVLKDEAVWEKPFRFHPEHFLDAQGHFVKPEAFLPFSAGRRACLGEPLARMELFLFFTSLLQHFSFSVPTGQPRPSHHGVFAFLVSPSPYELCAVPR
Chain of Cytochrome P450 2C19 (P33261 whole entry): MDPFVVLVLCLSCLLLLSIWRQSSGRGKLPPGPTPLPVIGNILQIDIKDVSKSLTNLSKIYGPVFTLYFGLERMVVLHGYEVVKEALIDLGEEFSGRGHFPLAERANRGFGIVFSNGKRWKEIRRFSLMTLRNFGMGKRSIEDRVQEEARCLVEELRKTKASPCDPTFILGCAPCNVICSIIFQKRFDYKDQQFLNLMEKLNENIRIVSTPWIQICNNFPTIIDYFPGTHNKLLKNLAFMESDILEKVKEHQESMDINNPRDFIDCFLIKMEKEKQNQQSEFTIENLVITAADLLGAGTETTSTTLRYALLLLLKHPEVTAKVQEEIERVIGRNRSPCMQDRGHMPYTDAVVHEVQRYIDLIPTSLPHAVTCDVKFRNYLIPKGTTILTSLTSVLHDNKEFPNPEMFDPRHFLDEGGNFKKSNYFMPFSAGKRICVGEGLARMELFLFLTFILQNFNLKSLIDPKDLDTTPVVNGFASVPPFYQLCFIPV
Chain of Beta-galactosidase (Q8VNN2 whole entry): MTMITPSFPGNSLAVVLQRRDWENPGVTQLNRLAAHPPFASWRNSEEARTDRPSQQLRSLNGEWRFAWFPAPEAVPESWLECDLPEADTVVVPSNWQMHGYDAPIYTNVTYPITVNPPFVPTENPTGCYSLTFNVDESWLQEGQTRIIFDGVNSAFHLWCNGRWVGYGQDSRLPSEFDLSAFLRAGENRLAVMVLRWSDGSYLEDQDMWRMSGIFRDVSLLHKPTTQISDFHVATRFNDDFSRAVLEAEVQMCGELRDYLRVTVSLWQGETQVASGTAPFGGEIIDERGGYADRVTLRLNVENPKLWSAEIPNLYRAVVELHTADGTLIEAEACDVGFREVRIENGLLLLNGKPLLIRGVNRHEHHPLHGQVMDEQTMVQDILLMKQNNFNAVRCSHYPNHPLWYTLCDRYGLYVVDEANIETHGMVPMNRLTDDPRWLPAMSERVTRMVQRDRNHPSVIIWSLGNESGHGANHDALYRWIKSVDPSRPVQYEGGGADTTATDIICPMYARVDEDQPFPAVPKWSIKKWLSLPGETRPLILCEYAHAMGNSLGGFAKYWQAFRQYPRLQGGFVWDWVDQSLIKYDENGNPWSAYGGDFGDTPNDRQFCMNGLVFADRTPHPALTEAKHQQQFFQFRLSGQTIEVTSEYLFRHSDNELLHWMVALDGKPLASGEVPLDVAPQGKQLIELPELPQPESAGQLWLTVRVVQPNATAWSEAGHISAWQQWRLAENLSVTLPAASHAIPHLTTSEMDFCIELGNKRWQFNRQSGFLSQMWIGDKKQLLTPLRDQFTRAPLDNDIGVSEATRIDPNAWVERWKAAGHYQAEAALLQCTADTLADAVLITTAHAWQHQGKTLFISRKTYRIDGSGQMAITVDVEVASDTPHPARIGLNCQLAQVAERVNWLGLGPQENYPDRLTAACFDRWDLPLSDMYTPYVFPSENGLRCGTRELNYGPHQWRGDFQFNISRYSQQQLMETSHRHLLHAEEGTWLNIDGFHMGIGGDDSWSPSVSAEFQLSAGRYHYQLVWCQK

Take `Cc1ccccc1-c1cc(Nc2ccccc2)ncn1`: the AC50 was 39.8 µM (inconclusive) on Cytochrome P450 2D6 [1] and “inconclusive” on Cytochrome P450 3A4.
As for `CN(C)S(=O)(=O)n1cc(/C=C(\NC(=O)c2ccccc2Cl)C(=O)N2CCCC2)c2ccccc21`, the EC50 in the data set on HEK293 [2] and in the data set on HEK293 [3] was > 59.6 µM (inactive) each time.
Take `COc1ccc(-n2cc(CNCc3cccnc3)c(-c3cccc(F)c3)n2)cc1`: the EC50 is > 92.5 µM (inactive) in [4], > 92.5 µM (inactive) in data set [5], > 260 µM (inactive) in [6] and 70.5 µM (inactive) on Mu-type opioid receptor.
With `NCC(O)CN.Oc1c(Cl)c(Cl)c(Cl)c(Cl)c1Cl`, the AC50 entry on Cytochrome P450 2D6 [7], at Cytochrome P450 3A4 and at Cytochrome P450 2C19 was “inactive” each time.
As for `CC(=O)Nc1cccc(C(=O)OCC(=O)c2ccc(S(=O)(=O)N3CCCCC3)cc2)c1`, the IC50 in data set [8] was 18 µM (active). For the same molecule, the EC50 on Beta-galactosidase was > 40 µM (inactive).
In the case of `COc1cc2nc(NCCCN3CCN(C)CC3)n3nc(-c4ccccc4)nc3c2cc1OC`, the values for the EC50 in [9] and in [10] were > 60 µM (not active) and 1.87 µM (active), respectively. The IC50 in [11] is 17.6 µM (active); in [13] it was 6.25 µM (active); at Bcl-2-related protein A1 it was > 20 µM (inactive). Further, the concentration at half-maximal activity (AC50) in data set [12] was 2.98 µM (active).
For the molecule `NC(=O)c1ccccc1NC(=O)/C=C/c1cccc(Cl)c1`, on Cytochrome P450 2C9, the AC50 result is “inconclusive”.
With `CC1CCC(NC(=O)CCn2ccc3cc(S(=O)(=O)N4CCCC4)ccc32)CC1` (stereo unspecified), the AC50 in data set [14] was 4.28 µM (active); in [15], 5.19 µM (active); in [16], 0.999 µM (active); in data set [17], 3.53 µM (active). Moreover, the EC50 in the data set with HEK293 [2] and with HEK293 [3] was > 59.6 µM (inactive) each time.
As to `CCOC(=O)c1cc(-c2ccc(OC)cc2)nc2c1c(C)nn2CCC#N`, the IC50 in data set [11] was 15 µM (active); in data set [13], 6.8 µM (active); at Bcl-2-related protein A1, > 20 µM (inactive).
Turning to `N=c1ccn2c(n1)O[C@@H]1[C@@H](O)[C@H](CO)O[C@H]12`, the values for the concentration at half-maximal activity (AC50) result at Cytochrome P450 2C9, at Cytochrome P450 3A4 and at Cytochrome P450 2C19 (read-out: AC50) were “inconclusive”, “inconclusive” and 0.0316 µM (inconclusive), respectively.
As for `Cn1c(CN2CCN(c3cccc(Cl)c3)CC2)nc2ccccc21`, the EC50 in [4] is > 92.5 µM (inactive); in data set [18], 2.11 µM (active); in data set [5] it was > 92.5 µM (inactive); at Mu-type opioid receptor, 15.7 µM (inactive).
